Assay results as given in patent US20210071180A1, “MICRORNA 584-5P COMPOSITIONS AND METHODS FOR TREATING CANCER” (BOARD OF REGENTS, THE UNIVERSY OF TEXAS SYSTEM, priority 2018, published 2021).

Columns and labels:
MB cells = assay: Immunofluorescence count of mitotic cells; format: cell-based; conditions: vs scrambled-transfected cells
Experimental: To gain more insight into the tumor-suppressing and VCR-sensitizing activities of miR-584-5p, it was determined how the miR-584-5p mimic affected cell cycle progression of MB cells. […] Bar graphs show DNA histograms quantified using the FlowJo software. In FIG. 9A, the p-values were determined by two-way ANOVA followed by Tukey's multiple-comparisons test. Error bars represent mean±SEM. […] In FIG. 9B, the p-values were calculated using standard Student t-tests. Error bars represent mean±SEM. […] Next, it was determined whether miR-584-5p's effect on cell cycle progression may be mediated via its target genes eIF4E3/HDAC1. […] Bar graphs show dot plots quantified using the FlowJo software. Next, it was tested whether miR-584-5p-induced cell cycle arrest led to apoptosis of MB cells. […] In FIG. 8C, the bar graphs reflect DNA histograms quantified using the FlowJo software and in FIG. 8D and FIG. 9C, the bar graphs show dot plots quantified using the FlowJo software. The p-values for panels 8A-D and FIG. 9C were determined by two-way ANOVA followed by Tukey's multiple-comparisons test. Error bars represent mean±SEM. ****, p<0.0001; ***, p<0.001; **, p<0.01; *, p<0.05.
Immunofluorescence and Western blot analysis Immunofluorescence analyses was carried out on cells fixed in 4% paraformaldehyde (Imam, J. S. et al. PLoS One 7, e52397, (2012)). […]

neural stem cell markers = assay: qPCR analysis of neural stem cell markers; format: cell-based; conditions: miR-584-5p mimic-transfected cells
Experimental: Several research groups have posited the presence of tumor-initiating cells in MBs (Manoranjan, B. et al. Pediatr Res 71, 516-522, (2012)). Moreover, the tumor-initiating cells in general have not responded to radiation and chemotherapy drugs (Manoranj an, B. et al. Pediatr Res 71, 516-522, (2012)). Therefore, it was tested whether miR-584 may inhibit MB tumor-initiating cell proliferation. Consistent with the characteristics of tumor-initiating cells, MB cells cultured in serum-free stem cell media formed tumor spheres that were serially passaged for many cycles (FIG. 14A). Bar graphs show number and size of medullospheres obtained from D556Med cells transfected with miR-NC or miR-584-5p mimic. The p-value was calculated using a standard Student t-test. Error bars represent mean±SEM. […] The p-value was calculated using one-way ANOVA followed by Sidak's multiple-comparisons test. Error bars represent mean±SEM. These findings are highly significant because, this study is one of the first to propose a role for miR-584-5p and its target genes in regulating MB stem cell proliferation.

miR-584-5p: microRNA mimic; nucleotide sequence UUAUGGUUUGCCUGGGACUGAG (SEQ ID NO: 1); purchased from Thermofisher (chemistry not given here)
mitotic cells (MB cells): significantly more mitotic cells | levels of neural stem cell markers (neural stem cell markers): significantly reduced
